# Experimental data: ChEMBL document CHEMBL4304811, “Development of a Water-Soluble Indolylmaleimide Derivative IM-93 Showing Dual Inhibition of Ferroptosis and NETosis” (ACS Med Chem Lett, 2019)
# Activity calls are given as the source filed them. No cut-off for these calls is given here.
# Columns and labels:
# [1] = tested on: Phosphatidylinositol 4,5-bisphosphate 3-kinase catalytic subunit alpha isoform (Homo sapiens), P42336 [E545K]; test: Binding affinity to human partial length PIK3CA E545K mutant (R108 to N1068 residues) expressed in mammalian expression system assessed as residual binding level at 10 uM by Kinomescan method relative to control
# [2] = tested on: Tyrosine-protein kinase ABL1 (Homo sapiens), P00519 [H396P]; test: Binding affinity to human phosphorylated ABL1 H396P mutant (S229 to K512 residues) expressed in mammalian expression system assessed as residual binding level at 10 uM by Kinomescan method relative to control
# [3] = target: Protein-arginine deiminase type-4 (Homo sapiens) (UniProt Q9UM07); test: Inhibition of recombinant human PAD4 at 200 uM using N-alpha-benzoyl-L-arginine ethyl ester as substrate by fluorescence based analysis
# [4] = target: Tyrosine-protein kinase ZAP-70 (Homo sapiens) (UniProt P43403); test: Binding affinity to wild-type human partial length ZAP70 (D20 to G299 residues) expressed in mammalian expression system assessed as residual binding level at 10 uM by Kinomescan method relative to control
# [5] = target: Phosphatidylinositol 3-kinase C2 domain-containing subunit gamma (Homo sapiens) (UniProt O75747); test: Binding affinity to wild-type human partial length PIK3C2G (M1 to I1446 residues) expressed in mammalian expression system assessed as residual binding level at 10 uM by Kinomescan method relative to control
# [6] = target: Serine/threonine-protein kinase SBK1 (Homo sapiens) (UniProt Q52WX2); test: Binding affinity to wild-type human partial length SBK1 (P23 to P348 residues) expressed in mammalian expression system assessed as residual binding level at 10 uM by Kinomescan method relative to control
# [7] = target: Calcium/calmodulin-dependent protein kinase type II subunit beta (Homo sapiens) (UniProt Q13554); test: Binding affinity to wild-type human partial length CAMK2B (M1 to Q380 residues) expressed in bacterial expression system assessed as residual binding level at 10 uM by Kinomescan method relative to control
# [8] = target: Casein kinase II subunit alpha (Homo sapiens) (UniProt P68400); test: Binding affinity to wild-type human full length CSNK2A1 (M1 to Q391 residues) expressed in mammalian expression system assessed as residual binding level at 10 uM by Kinomescan method relative to control
# [9] = target: Cyclin-dependent kinase 2 homolog (Plasmodium falciparum (isolate 3D7)) (UniProt P61075); test: Binding affinity to wild-type Plasmodium falciparum full length PK5 (M1 to N288 residues) expressed in mammalian expression system assessed as residual binding level at 10 uM by Kinomescan method relative to control
# THP-1 = test: Inhibition of Pseudomonas aeruginosa-induced pyroptosis in human THP1 cells at 10 uM preincubated for 1 hr followed by bacterial infection and measured after 2 hrs by INT dye based LDH assay; type: functional, cell-based
# [10] = target: Mitogen-activated protein kinase 1 (Homo sapiens) (UniProt P28482); test: Binding affinity to wild-type human full length ERK2 (M1 to S360 residues) expressed in bacterial expression system assessed as residual binding level at 10 uM by Kinomescan method relative to control
# [11] = target: Serine/threonine-protein kinase Nek1 (Homo sapiens) (UniProt Q96PY6); test: Binding affinity to wild-type human partial length NEK1 (M1 to K278 residues) expressed in bacterial expression system assessed as residual binding level at 10 uM by Kinomescan method relative to control
# [12] = target: Tyrosine-protein kinase ABL1 (Homo sapiens) (UniProt P00519); test: Binding affinity to wild-type human phosphorylated ABL1 (S229 to K512 residues) expressed in mammalian expression system assessed as residual binding level at 10 uM by Kinomescan method relative to control
# [13] = target: Cyclin-dependent kinase 19 (Homo sapiens) (UniProt Q9BWU1); test: Binding affinity to wild-type human partial length CDK11 (M1 to N360 residues) expressed in bacterial expression system assessed as residual binding level at 10 uM by Kinomescan method relative to control
# [14] = target: Tyrosine-protein kinase Blk (Homo sapiens) (UniProt P51451); test: Binding affinity to wild-type human partial length BLK (G211 to L503 residues) expressed in bacterial expression system assessed as residual binding level at 10 uM by Kinomescan method relative to control
# [15] = target: Ribosomal protein S6 kinase alpha-1 (Homo sapiens) (UniProt Q15418); test: Binding affinity to wild-type human partial length N-terminal RSK1 Kinase domain 1 (M1 to E388 residues) expressed in bacterial expression system assessed as residual binding level at 10 uM by Kinomescan method relative to control
# [16] = target: Receptor-type tyrosine-protein kinase FLT3 (Homo sapiens) (UniProt P36888); test: Binding affinity to wild-type human partial length autoinhibited FLT3 (H564 to Y969 residues) expressed in mammalian expression system assessed as residual binding level at 10 uM by Kinomescan method relative to control
# [17] = tested on: Tyrosine-protein kinase ABL1 (Homo sapiens), P00519 [H396P]; test: Binding affinity to human non-phosphorylated ABL1 H396P mutant (S229 to K512 residues) expressed in mammalian expression system assessed as residual binding level at 10 uM by Kinomescan method relative to control
# [18] = target: Serine/threonine-protein kinase MAK (Homo sapiens) (UniProt P20794); test: Binding affinity to wild-type human partial length MAK (M1 to P314 residues) expressed in bacterial expression system assessed as residual binding level at 10 uM by Kinomescan method relative to control
# [19] = target: Cyclin-dependent kinase 2 (Homo sapiens) (UniProt P24941); test: Binding affinity to wild-type human full length CDK2 (M1 to L298 residues) expressed in bacterial expression system assessed as residual binding level at 10 uM by Kinomescan method relative to control
# [20] = target: Ribosomal protein S6 kinase alpha-5 (Homo sapiens) (UniProt O75582); test: Binding affinity to wild-type human partial length N- terminal RPS6KA5 kinase domain 1 expressed in bacterial expression system assessed as residual binding level at 10 uM by Kinomescan method relative to control
# [21] = target: SRSF protein kinase 3 (Homo sapiens) (UniProt Q9UPE1); test: Binding affinity to wild-type human partial length SRPK3 (P41 to P567 residues) expressed in bacterial expression system assessed as residual binding level at 10 uM by Kinomescan method relative to control
# [22] = target: TRAF2 and NCK-interacting protein kinase (Homo sapiens) (UniProt Q9UKE5); test: Binding affinity to wild-type human partial length TNIK (D4 to K311 residues) expressed in bacterial expression system assessed as residual binding level at 10 uM by Kinomescan method relative to control
# [23] = tested on: Phosphatidylinositol 4,5-bisphosphate 3-kinase catalytic subunit alpha isoform (Homo sapiens), P42336 [H1047Y]; test: Binding affinity to human partial length PIK3CA H1047Y mutant (R108 to N1068 residues) expressed in mammalian expression system assessed as residual binding level at 10 uM by Kinomescan method relative to control
# [24] = target: Serine/threonine-protein kinase PAK 4 (Homo sapiens) (UniProt O96013); test: Binding affinity to wild-type human partial length PAK4 (Q144 to R438 residues) expressed in bacterial expression system assessed as residual binding level at 10 uM by Kinomescan method relative to control
# Sequence of Serine/threonine-protein kinase PAK 4 (Homo sapiens) (O96013 whole entry, looked up, the tested form may be a part): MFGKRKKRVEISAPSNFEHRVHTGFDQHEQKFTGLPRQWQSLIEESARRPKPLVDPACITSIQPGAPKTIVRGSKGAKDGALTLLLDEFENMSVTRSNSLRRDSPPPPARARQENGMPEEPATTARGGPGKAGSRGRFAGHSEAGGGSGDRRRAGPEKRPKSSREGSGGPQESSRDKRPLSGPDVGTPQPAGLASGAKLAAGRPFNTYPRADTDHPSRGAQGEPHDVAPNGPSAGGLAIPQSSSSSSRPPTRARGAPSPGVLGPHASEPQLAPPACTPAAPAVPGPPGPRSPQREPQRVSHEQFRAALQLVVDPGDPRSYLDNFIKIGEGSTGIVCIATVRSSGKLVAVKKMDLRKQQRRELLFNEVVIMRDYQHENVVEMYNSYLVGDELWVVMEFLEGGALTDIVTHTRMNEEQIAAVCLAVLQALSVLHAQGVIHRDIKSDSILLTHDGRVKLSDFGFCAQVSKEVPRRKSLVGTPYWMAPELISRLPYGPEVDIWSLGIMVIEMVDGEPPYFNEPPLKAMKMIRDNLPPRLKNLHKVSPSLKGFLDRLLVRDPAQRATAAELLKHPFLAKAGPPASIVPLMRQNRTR
# Sequence of Serine/threonine-protein kinase MAK (Homo sapiens) (P20794 whole entry, the tested form may be a part): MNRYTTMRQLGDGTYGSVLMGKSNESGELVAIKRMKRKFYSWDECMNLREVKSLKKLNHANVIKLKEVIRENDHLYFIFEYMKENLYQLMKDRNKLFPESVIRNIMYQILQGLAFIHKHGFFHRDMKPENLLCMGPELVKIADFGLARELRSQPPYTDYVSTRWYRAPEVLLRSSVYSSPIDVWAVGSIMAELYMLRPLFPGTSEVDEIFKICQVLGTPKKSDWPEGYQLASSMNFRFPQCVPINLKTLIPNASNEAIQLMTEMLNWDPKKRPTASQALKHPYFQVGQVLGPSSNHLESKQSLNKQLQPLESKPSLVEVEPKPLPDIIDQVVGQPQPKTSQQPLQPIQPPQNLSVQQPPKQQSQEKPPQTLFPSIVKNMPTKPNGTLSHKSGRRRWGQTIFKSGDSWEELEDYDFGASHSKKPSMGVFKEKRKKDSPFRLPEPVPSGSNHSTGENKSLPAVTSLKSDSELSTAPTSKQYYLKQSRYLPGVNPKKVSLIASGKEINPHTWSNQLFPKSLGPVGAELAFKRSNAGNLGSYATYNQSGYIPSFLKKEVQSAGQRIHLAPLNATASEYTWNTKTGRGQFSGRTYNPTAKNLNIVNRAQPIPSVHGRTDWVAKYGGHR
# Sequence of Receptor-type tyrosine-protein kinase FLT3 (Homo sapiens) (P36888 whole entry, the tested form may be a part): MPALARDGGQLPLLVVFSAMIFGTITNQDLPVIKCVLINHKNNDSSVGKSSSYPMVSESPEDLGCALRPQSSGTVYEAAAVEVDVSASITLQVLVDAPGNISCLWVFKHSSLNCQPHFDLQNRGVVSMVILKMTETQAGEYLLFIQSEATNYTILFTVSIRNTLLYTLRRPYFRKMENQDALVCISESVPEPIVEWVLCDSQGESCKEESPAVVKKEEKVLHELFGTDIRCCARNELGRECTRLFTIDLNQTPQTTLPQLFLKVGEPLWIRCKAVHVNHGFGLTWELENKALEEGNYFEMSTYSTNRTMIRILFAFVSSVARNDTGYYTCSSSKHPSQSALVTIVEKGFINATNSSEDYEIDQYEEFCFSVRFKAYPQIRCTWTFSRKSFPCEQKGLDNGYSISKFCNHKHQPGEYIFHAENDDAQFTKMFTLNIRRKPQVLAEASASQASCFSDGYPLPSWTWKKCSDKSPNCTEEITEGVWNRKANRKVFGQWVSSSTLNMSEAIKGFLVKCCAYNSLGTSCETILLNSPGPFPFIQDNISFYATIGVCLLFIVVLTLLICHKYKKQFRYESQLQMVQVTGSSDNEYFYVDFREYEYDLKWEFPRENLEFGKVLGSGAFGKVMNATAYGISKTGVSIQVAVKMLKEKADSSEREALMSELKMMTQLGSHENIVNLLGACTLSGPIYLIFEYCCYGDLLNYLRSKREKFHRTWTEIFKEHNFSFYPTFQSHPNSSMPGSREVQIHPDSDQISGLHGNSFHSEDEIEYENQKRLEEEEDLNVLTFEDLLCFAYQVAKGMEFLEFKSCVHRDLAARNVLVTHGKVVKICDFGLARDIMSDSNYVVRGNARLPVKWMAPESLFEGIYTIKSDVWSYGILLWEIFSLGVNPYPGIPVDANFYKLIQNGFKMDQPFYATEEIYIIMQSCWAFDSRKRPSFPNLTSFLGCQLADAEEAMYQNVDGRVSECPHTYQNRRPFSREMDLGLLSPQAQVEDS
# Sequence of Phosphatidylinositol 4,5-bisphosphate 3-kinase catalytic subunit alpha isoform (Homo sapiens), P42336 [H1047Y] (P42336 whole entry H1047Y, the tested form may be a part, canonical isoform): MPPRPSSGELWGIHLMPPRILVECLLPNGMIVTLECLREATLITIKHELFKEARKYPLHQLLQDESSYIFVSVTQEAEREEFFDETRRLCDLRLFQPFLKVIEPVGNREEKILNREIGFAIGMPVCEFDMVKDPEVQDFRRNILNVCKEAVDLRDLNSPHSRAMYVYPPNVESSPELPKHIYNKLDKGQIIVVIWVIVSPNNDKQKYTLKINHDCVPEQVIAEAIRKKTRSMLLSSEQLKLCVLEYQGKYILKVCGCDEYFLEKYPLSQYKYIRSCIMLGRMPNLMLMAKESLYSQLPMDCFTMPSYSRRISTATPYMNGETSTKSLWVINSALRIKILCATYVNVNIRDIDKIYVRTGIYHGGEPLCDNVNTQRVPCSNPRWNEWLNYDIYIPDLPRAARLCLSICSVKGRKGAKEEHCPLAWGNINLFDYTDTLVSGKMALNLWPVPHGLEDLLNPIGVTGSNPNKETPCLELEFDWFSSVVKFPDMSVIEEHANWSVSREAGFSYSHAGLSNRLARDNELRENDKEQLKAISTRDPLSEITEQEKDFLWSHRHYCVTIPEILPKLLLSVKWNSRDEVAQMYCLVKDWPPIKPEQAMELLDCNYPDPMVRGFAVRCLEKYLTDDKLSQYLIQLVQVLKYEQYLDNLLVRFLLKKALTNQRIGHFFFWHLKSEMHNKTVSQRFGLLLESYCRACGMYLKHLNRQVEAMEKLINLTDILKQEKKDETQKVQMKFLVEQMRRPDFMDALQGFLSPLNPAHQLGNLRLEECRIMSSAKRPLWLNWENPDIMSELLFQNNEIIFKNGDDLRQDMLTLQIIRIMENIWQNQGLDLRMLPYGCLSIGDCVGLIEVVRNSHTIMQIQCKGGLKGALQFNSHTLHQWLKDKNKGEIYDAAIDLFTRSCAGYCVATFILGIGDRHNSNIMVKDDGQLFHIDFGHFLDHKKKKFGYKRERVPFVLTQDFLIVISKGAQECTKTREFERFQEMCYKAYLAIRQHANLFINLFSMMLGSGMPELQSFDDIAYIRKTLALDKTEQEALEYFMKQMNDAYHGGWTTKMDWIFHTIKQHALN
# Sequence of Casein kinase II subunit alpha (Homo sapiens) (P68400 whole entry, looked up, the tested form may be a part): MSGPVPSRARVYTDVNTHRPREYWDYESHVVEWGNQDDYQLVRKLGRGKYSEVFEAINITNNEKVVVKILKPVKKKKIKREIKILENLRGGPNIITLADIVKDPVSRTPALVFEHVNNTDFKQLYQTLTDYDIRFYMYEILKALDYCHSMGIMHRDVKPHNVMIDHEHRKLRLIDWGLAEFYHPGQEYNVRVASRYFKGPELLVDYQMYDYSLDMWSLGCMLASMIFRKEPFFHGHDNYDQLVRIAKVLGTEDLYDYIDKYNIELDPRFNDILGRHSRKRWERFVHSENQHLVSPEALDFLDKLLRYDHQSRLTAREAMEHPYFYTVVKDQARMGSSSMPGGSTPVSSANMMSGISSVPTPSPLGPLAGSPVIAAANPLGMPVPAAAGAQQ
# Sequence of Cyclin-dependent kinase 19 (Homo sapiens) (Q9BWU1 whole entry, the tested form may be a part): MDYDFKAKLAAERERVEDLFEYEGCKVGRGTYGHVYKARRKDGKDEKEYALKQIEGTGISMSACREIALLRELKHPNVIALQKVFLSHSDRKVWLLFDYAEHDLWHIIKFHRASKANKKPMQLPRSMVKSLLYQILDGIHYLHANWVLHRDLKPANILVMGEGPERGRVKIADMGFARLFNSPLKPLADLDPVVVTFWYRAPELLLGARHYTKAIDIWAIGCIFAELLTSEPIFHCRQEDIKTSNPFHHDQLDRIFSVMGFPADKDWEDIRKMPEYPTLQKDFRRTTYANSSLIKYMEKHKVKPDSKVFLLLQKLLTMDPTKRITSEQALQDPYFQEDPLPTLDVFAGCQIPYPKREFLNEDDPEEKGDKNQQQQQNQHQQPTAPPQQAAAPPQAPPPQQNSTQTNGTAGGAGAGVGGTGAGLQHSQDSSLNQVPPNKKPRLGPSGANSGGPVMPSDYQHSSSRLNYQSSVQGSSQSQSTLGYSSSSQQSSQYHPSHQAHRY
# Sequence of Tyrosine-protein kinase ZAP-70 (Homo sapiens) (P43403 whole entry, the tested form may be a part): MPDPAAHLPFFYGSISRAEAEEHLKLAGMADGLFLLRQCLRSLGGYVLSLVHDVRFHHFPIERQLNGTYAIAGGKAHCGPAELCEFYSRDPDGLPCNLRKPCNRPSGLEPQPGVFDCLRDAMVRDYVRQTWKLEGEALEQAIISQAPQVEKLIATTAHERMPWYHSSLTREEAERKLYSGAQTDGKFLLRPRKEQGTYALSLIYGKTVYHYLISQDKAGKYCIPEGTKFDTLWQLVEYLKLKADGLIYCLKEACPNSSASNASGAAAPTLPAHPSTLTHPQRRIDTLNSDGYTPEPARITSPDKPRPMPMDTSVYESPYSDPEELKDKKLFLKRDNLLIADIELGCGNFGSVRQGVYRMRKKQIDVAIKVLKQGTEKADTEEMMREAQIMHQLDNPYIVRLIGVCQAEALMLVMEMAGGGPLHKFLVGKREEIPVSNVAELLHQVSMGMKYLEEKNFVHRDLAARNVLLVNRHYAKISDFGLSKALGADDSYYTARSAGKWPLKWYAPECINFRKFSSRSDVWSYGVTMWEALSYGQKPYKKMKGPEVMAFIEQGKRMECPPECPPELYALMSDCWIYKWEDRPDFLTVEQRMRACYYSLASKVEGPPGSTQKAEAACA
smiles,measurement,setting,value
CC(C)N1C(=O)C(NCCCN(C)C)=C(c2cn(C)c3ccccc23)C1=O.Cl,Activity,[1],93%
same,Activity,[2],93%
same,inhibition,[3],inactive
same,Activity,[4],100%
same,Activity,[5],84%
same,Activity,[6],100%
same,Activity,[7],100%
same,Activity,[8],98%
same,Activity,[9],87%
same,inhibition,THP-1,inactive
same,Activity,[10],95%
same,Activity,[11],100%
same,Activity,[12],92%
same,Activity,[13],94%
same,Activity,[14],98%
same,Activity,[15],98%
same,Activity,[16],88%
same,Activity,[17],90%
same,Activity,[18],100%
same,Activity,[19],92%
same,Activity,[20],97%
same,Activity,[21],100%
same,Activity,[22],100%
same,Activity,[23],94%
same,Activity,[24],89%
